# What was measured:
# [1] = Plasma stability, mini pig plasma; format: in vitro ADME, Mini Pigs; conditions: 37° C.
# Experimental: (§1) In addition, the plasma stability of these compounds was determined. Briefly, the determination method comprises the following steps: • 1) Thaw the frozen mixed plasma in a 37° C. water bath before testing, and then centrifuge at 4000 rpm for 5 min to remove blood clots; • 2) Add 98 μL blank plasma into each well of the 96-well reaction plate; • 3) In addition to the blank samples, add 2 μL of 100 μM working solution of test compound into each well; • 3) Incubate the reaction plate at 37° C. and start timing. Incubation times were 0, 10, 30, 60 and 120 minutes, respectively, with two replicate wells at each time point; • 4) Terminate the incubation at the corresponding time point, and add 400 μL of acetonitrile solution containing 200 ng/mL tolbutamide and 200 ng/mL labetalol to precipitate proteins; • 5) Shake each plate for 20 minutes, then centrifuge at 4000 rpm for 20 minutes, transfer 50 μL of supernatant to another 96-well plate, and dilute each sample with 100 μL of pure water; • 6) Analyze the sample by LC-MS/MS.
# [2] = Plasma stability, human plasma; format: in vitro ADME, Humans; conditions: 37° C.
# Experimental: as §1
# The experiment results are as follows, and it can be seen from the test results that the selected compounds are easily metabolized to the target compound in human plasma.
# [3] = tested on: rash caused by small molecule EGFR inhibitors; experiment: Prevention of rash caused by small molecule EGFR inhibitors, topical ointment, rat model; format: in vivo, SD rats
# Description: An Experiment to Verify the Prevention of Rash Caused by Small Molecule EGFR Inhibitors with Topical Administration of Compounds of the Present Application on a Rat Animal Model A rat animal model was established. After daily gavage of a small molecule EGFR inhibitor to female SD rats for […], the rats developed extensive rashes on their backs several days later (picture shown in FIG. 1). […] Similar to humans, rats developed skin rashes on their faces and bodies after oral administration of small molecule EGFR inhibitors. Both of them had the same etiology and very similar symptoms. Therefore, rats are a proper animal model for mimicking EGFR inhibitor-induced rash. After the SD rats were fed and adapted for one week (about 200 g), the rats were divided into 10 rats per group. The hair on the back of rats was gently removed with an electric razor one day before the experiment, and then an intragastric administration test was carried out. EGFR inhibitors were dissolved in a sterile aqueous solution, and diluted with PBS buffer; the amount of each gavage was not more than 2 mL, and the dosage was shown in Table 1. The experiment comprised the administration group and the control group. After intragastric administration, apply the ointment (type and concentration are shown in Table 1) of the compound used in the present application to the backs (about 3 cm*3 cm) of rats in the administration group; apply blank matrix ointment (about 0.5 g) to the backs (about 3 cm*3 cm) of rats in the control group; fix the rats with a fixed cylinder for about 4 hours after drug application, release the rats after 4 hours, wipe off the residual drug at the application site with clean water, and put them back into the cage. The frequency of intragastric administration of EGFR inhibitors is shown in Table 1, but the compounds of the present application and blank matrix ointment are applied only once a day. The intragastric administration and application test were repeated daily until an obvious rash appeared in the control group. […] Table 1 lists the animal experiment combination of various small molecule EGFR inhibitors and the compound ointment of the present application, as well as the corresponding experiment results (wherein, the value in the control rate column=the number of rats whose rash is milder in the administration group than that in the control group/the total number of rats in the administration group×100%).
# [4] = tested on: rash caused by monoclonal EGFR inhibitors; experiment: Treatment of rash caused by monoclonal EGFR inhibitors, topical ointment, rat model; format: in vivo; conditions: SD rats
# Experimental: An Experiment to Verify the Treatment of Rash Caused by Monoclonal EGFR Inhibitors with Topical Administration of Compounds of the Present Application on a Rat Animal Model After the SD rats were fed and adapted for one week (about 200 g), the rats were divided into 10 rats per group. The hair on the back of rats was gently removed with an electric razor one day before the experiment, and then an administration test was carried out. The EGFR monoclonal antibody solution diluted with normal saline was injected via tail vein twice a week, and the injection rate and time were shown in Table 4; the treatment experiment was started at the time point when rats developed a rash after continuous administration for 1-2 weeks. The experiments were divided into the administration group with the compound of the present application and the control group. During the treatment experiment, monoclonal antibody EGFR inhibitors were injected twice a week. the administration group applied the compound ointment of the present application on the back (about 3 cm*3 cm) of rats every day, and the control group applied blank matrix ointment on the back (about 3 cm*3 cm); after application, the rats were fixed with a fixed cyclinder for about 4 hours, and then the rats were released, with the residual drug at the application site wiped off with clean water, and put back into the cage. […] Table 4 lists the animal experiment combinations of monoclonal antibody EGFR inhibitors and the compound ointment of the present application, as well as the corresponding experiment results (wherein, the value in the control rate column=the number of rats whose rash is milder in the administration group than that in the control group/the total number of rats in the administration group×100%).
compound,measurement,setting,value
CC(=O)OCCN(C)C(=O)n1ccc2c(N(C)[C@H]3CN(C(=O)CC#N)CC[C@H]3C)ncnc21 [Compound A13],half-life at 2 µM,[1],> 289 min
same,% Retained,[1]; 0 min,100.0%
same,% Retained,[1]; 10 min,85.3%
same,% Retained,[1]; 30 min,91.0%
same,% Retained,[1]; 60 min,91.0%
same,% Retained,[1]; 120 min,77.6%
same,half-life at 2 µM,[2],32.5 min
same,% Retained,[2]; 0 min,100.0%
same,% Retained,[2]; 10 min,77.1%
same,% Retained,[2]; 30 min,48.2%
same,% Retained,[2]; 60 min,28.1%
same,% Retained,[2]; 120 min,7.4%
C[C@@H]1CCN(C(=O)CC#N)C[C@@H]1N(C)c1ncnc2c1ccn2C(=O)N(C)CCOC(=O)c1ccccc1 [Compound A14],Control Rate,"[3]; BPI-7711 60 mg/kg once a day, ointment 5.0 wt% (A14: printed '^ 5%%') once a day, 12 days",70%
same,Control Rate,"[3]; Dacomitinib 10 mg/kg once a day, ointment 1.0 wt% once a day, 12 days",50%
same,Control Rate,"[3]; Dacomitinib 10 mg/kg once a day, ointment 5.0 wt% once a day, 12 days",65%
same,Control Rate,"[3]; Osimertinib 60 mg/kg twice a day, ointment 0.3 wt% once a day, 10 days",30%
same,Control Rate,"[3]; Osimertinib 60 mg/kg twice a day, ointment 10.0 wt% once a day, 10 days",80%
same,Control Rate,"[3]; Zorifertinib 60 mg/kg once a day, ointment concentration printed '^ 3%%' (wt %) once a day, 14 days",50%
same,Control Rate,"[4]; Cetuximab 102 mg/kg twice a week via tail vein, ointment 1.0 wt%, 10 days of drug application",20%
same,Control Rate,"[4]; Cetuximab 102 mg/kg twice a week via tail vein, ointment 5.0 wt%, 10 days of drug application",60%
same,Control Rate,"[4]; Panitumumab 6 mg/kg twice a week via tail vein, ointment 0.1 wt%, 8 days of drug application",40%
same,Control Rate,"[4]; Panitumumab 6 mg/kg twice a week via tail vein, ointment 3.0 wt%, 8 days of drug application",70%
C[C@@H]1CCN(C(=O)CC#N)C[C@@H]1N(C)c1ncnc2c1ccn2C(=O)N(C)CCOC(=O)c1ccncc1 [Compound A15],half-life at 2 µM,[1],71.5 min
same,% Retained,[1]; 0 min,100.0%
same,% Retained,[1]; 10 min,88.3%
same,% Retained,[1]; 30 min,75.9%
same,% Retained,[1]; 60 min,57.6%
same,% Retained,[1]; 120 min,30.8%
same,half-life at 2 µM,[2],4.8 min
same,% Retained,[2]; 0 min,100.0%
same,% Retained,[2]; 10 min,20.6%
same,% Retained,[2]; 30 min,0.9%
same,% Retained,[2]; 60 min,0.0%
same,% Retained,[2]; 120 min,0.0%
C[C@@H]1CCN(C(=O)CC#N)C[C@@H]1N(C)c1ncnc2c1ccn2C(=O)N(C)CCOC(=O)C1CCN(C)CC1 [Compound A17],half-life at 2 µM,[1],66.8 min
same,% Retained,[1]; 0 min,100.0%
same,% Retained,[1]; 10 min,100.9%
same,% Retained,[1]; 30 min,76.0%
same,% Retained,[1]; 60 min,52.2%
same,% Retained,[1]; 120 min,30.7%
same,half-life at 2 µM,[2],25 min
same,% Retained,[2]; 0 min,100.0%
same,% Retained,[2]; 10 min,83.4%
same,% Retained,[2]; 30 min,50.7%
same,% Retained,[2]; 60 min,20.4%
same,% Retained,[2]; 120 min,3.8%

# Source: US20250188088A1, “COMPOUND AND USE THEREOF” (ONQUALITY PHARMACEUTICALS CHINA LTD., priority 2022, published 2025)
